For orientation: IC50 means the concentration that gives 50% inhibition.

For 29 molecules, IC50 results are on record in patent US11524966B1 (Valo Early Discovery, Inc., priority 2017, dated 2022).

This assay concerns the target T1, USP25 (USP25-His6, Boston Biochem E-546) (Homo sapiens, UniProt Q9UHP3).
T1 construct: His6; purchased Boston Biochem E-546
T1 sequence (Q9UHP3 1-1055): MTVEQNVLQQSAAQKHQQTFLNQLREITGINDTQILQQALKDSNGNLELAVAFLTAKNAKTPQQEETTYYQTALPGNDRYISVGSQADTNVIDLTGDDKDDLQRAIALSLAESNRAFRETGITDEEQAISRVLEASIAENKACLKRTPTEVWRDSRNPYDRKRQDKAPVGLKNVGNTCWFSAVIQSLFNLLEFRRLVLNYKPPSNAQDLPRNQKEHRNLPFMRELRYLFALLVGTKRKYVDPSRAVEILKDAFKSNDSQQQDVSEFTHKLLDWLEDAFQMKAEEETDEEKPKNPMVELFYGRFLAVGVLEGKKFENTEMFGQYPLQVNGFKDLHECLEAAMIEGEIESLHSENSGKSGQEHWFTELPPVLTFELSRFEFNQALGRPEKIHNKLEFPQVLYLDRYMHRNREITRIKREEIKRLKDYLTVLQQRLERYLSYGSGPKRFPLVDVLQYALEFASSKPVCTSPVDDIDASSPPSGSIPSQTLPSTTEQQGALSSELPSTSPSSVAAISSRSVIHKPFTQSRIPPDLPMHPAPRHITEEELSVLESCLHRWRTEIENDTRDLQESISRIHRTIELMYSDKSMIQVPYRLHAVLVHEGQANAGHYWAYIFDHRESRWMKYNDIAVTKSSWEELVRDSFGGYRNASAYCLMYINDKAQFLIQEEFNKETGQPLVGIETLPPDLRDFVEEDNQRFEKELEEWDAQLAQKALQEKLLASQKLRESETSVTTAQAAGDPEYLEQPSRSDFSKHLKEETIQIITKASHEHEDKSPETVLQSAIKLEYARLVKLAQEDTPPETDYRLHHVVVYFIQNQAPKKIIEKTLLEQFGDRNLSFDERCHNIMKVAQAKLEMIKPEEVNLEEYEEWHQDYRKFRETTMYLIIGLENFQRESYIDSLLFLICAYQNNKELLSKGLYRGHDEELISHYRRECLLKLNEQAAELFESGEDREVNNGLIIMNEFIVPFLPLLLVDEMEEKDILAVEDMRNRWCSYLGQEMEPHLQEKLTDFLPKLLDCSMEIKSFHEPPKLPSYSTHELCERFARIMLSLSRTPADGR
The assay is described as follows: Ubiquitin-Rhodamine 110 Assay for USP25 Activity, Example A-2. It counts as biochemical. Conditions: Ub-Rh110 assay, Example A-2; read-out: USP25 A-2 IC50 range. The protocol: The assay was performed in a final volume of 9 μL in assay buffer containing 20 mM Tris-HCl (pH 8.0, (1M Tris-HCl, pH 8.0 solution; Corning 46-031-CM)), 3 mM BME (2-Mercaptoethanol; Sigma 63689-25ML-F), 0.03% BGG (0.22 μM filtered, Sigma, G7516-25G), and 0.01% Triton X-100 (Sigma, T9284-10L). Nanoliter quantities of 10-point, 3-fold serial dilution in DMSO was pre-dispensed into 1536 assay plates (Corning, #3724BC) for a final test concentration of 25 μM to 1.3 nM, top to lowest dose, respectively. Enzyme USP25, construct USP25-His6, (Boston Biochem E-546). Concentration and incubation times were optimized for the maximal signal-to-background while maintaining initial velocity conditions at a fixed substrate concentration. The final concentration of the enzyme in the assay was 75 pM. Final substrate (Ub-Rh110; Ubiquitin-Rhodamine 110, R&D Systems #U-555) concentration was 25 nM with [Ub-Rh110]<<Km. 3 μL of 2× enzyme was added to assay plates (pre-stamped with compound) preincubated with […] for 30 minutes and then 3 μL of 2×Ub-Rh110 was added to assay plates. Plates were incubated for 45 minutes at room temperature before addition of 3 μL of stop solution (final concentration of 10 mM citric acid (Sigma, 251275-500G)). Fluorescence was read on the Envision (Excitation at 485 nm and Emission at 535 nm; Perkin Elmer) or on the PheraSTAR (Excitation at 485 nm and Emission at 535 nm; BMG Labtech).
IC50 values were determined by curve fitting of the standard 4 parameter logistic fitting algorithm included in the Activity Base software package: IDBS XE Designer Model 205. Data is fitted using the Levenburg Marquardt algorithm.
For the molecule `Cc1cnc2c(N)c(C(=O)N[C@H]3COc4cc(N5CC6COCC(C5)N6)ccc4C3)sc2n1` [Example 2-12, N-((3R)-7-(3-oxa-7,9-diazabicyclo[3.3.1]nonan-7-yl)chroman-3-yl)-7-amino-3-methylthieno[2,3-b]pyrazine-6-carboxamide], the IC50 lay in the range of 0.2 to 2 µM.

For `CCn1ccc2cc(C(=O)N[C@@H]3COc4cc(N5CC6CCC(C5)N6)ccc4C3)cnc21` (single isomer, unassigned) [Example 1-27], the IC50 was over 2 µM. With `Cc1nc2sc(C(=O)N[C@H]3COc4cc(N5CCNCC5)cc(F)c4C3)c(N)c2s1` (single isomer, unassigned) [Example 1-37], the IC50 was over 2 µM. `Cc1ccc2c(N)c(C(=O)N[C@@H]3COc4c(ccc(N5CCNCC5)c4F)C3)sc2n1` [Example 1-34, (S)-3-amino-N-(8-fluoro-7-(piperazin-1-yl)chroman-3-yl)-6-methylthieno[2,3-b]pyridine-2-carboxamide]: the IC50 is over 2 µM.

As for `Cc1nc2sc(C(=O)N[C@@H]3COc4cc(N5CC6CCC(C5)N6)ccc4C3)c(N)c2s1` [Example 1-24, N-((3S)-7-(3,8-diazabicyclo[3.2.1]octan-3-yl)chroman-3-yl)-6-amino-2-methylthieno[2,3-d]thiazole-5-carboxamide], the IC50 was over 2 µM. On to `Cc1ccc2c(N)c(C(=O)N[C@H]3COc4cc(N5CC6CNCC(C5)C6(F)F)ccc4C3)sc2n1` [Example 2-1, 3-Amino-N-((3R)-7-(9,9-difluoro-3,7-diazabicyclo[3.3.1]nonan-3-yl)chroman-3-yl)-6-methylthieno[2,3-b]pyridine-2-carboxamide], for which the IC50 lay within 0.001 to 0.05 µM. Turning to `Cc1ccc2c(N)c(C(=O)N[C@H]3COc4cc(N5CCNCC5)c(OC(F)(F)F)cc4C3)sc2n1` (single isomer, unassigned) [Example 1-31], the IC50 was over 2 µM.

Take `Cc1ccc2c(N)c(C(=O)N[C@@H]3COc4cc(N5CCNCC5)c(F)cc4C3)sc2n1` [Example 1-36, (S)-3-amino-N-(6-fluoro-7-(piperazin-1-yl)chroman-3-yl)-6-methylthieno[2,3-b]pyridine-2-carboxamide]: the IC50 is over 2 µM. The result for `Cc1nc2sc(C(=O)N[C@@H]3COc4cc(N5CC6CCC(C5)N6)cc(F)c4C3)c(N)c2s1` (single isomer, unassigned) [Example 1-40] reads over 2 µM.

As for `Cc1ccc2c(N)c(C(=O)N[C@H]3COc4cc(N5CCN[C@H](C)[C@H]5C)ccc4C3)sc2n1` (single isomer, unassigned) [Example 1-11], the IC50 lay in the range of 0.05 to 0.2 µM. Turning to `Cc1cc(C)c2c(N)c(C(=O)N[C@H]3COc4cc(N5CCNCC5)c(C#N)c(F)c4C3)sc2n1` [Example 2-32, (R)-3-amino-N-(6-cyano-5-fluoro-7-(piperazin-1-yl)chroman-3-yl)-4,6-dimethylthieno[2,3-b]pyridine-2-carboxamide], the IC50 fell in the range of 0.001 to 0.05 µM. The value for `Cc1ccc2c(N)c(C(=O)N[C@H]3COc4cc(N5CCCC56CNC6)ccc4C3)sc2n1` [Example 2-7, (R)-N-(7-(2,5-diazaspiro[3.4]octan-5-yl)chroman-3-yl)-3-amino-6-methylthieno[2,3-b]pyridine-2-carboxamide] was 0.2 to 2 µM; that for `Cc1cc(C)c2c(N)c(C(=O)N[C@H]3COc4c(C#N)c(N5CCNCC5)cc(F)c4C3)sc2n1` [Example 2-31, (R)-3-amino-N-(8-cyano-5-fluoro-7-(piperazin-1-yl)chroman-3-yl)-4,6-dimethylthieno[2,3-b]pyridine-2-carboxamide] was 0.2 to 2 µM; that for `Cc1ccc2c(N)c(C(=O)N[C@H]3COc4cc(N5C6CCC5CNC6)ccc4C3)sc2n1` [Example 2-6, N-((3R)-7-(3,8-diazabicyclo[3.2.1]octan-8-yl)chroman-3-yl)-3-amino-6-methylthieno[2,3-b]pyridine-2-carboxamide] was 0.05 to 0.2 µM. Regarding `O=C(N[C@H]1COc2cc(N3CC4CCC(C3)N4)ccc2C1)c1ccc(NCc2ccccc2)nc1` [Example 2-25, N-((3R)-7-(3,8-diazabicyclo[3.2.1]octan-3-yl)chroman-3-yl)-6-(benzylamino)nicotinamide], the IC50 lay in the range of 0.05 to 0.2 µM. On to `CO[C@H]1CN(c2ccc3c(c2)OC[C@H](NC(=O)c2sc4nc(C)ccc4c2N)C3)C[C@@H]1N` (single isomer, unassigned) [Example 3-1], for which the IC50 was 0.2 to 2 µM. `Cc1ccc2c(N)c(C(=O)N[C@H]3COc4cc(N5CCN[C@H](C)[C@@H]5C)ccc4C3)sc2n1` (single isomer, unassigned) [Example 1-9]: the half-inhibitory concentration (IC50) was 0.2 to 2 µM. As for `Cc1nc2sc(C(=O)N[C@@H]3COc4cc(N5CCNCC5)ccc4C3)c(N)c2s1` [Example 1-26, (S)-6-amino-2-methyl-N-(7-(piperazin-1-yl)chroman-3-yl)thieno[2,3-d]thiazole-5-carboxamide], the IC50 is over 2 µM.

Turning to `Cc1ccc2c(N)c(C(=O)N[C@@H]3COc4cc(N5CCNCC5)ccc4C3)sc2n1` (single isomer, unassigned) [Example 1-2], the IC50 is over 2 µM.

As to `Cc1cc(C)c2c(N)c(C(=O)N[C@H]3COc4cc(N5CCNCC5)ccc4C3)sc2n1` [Example 2-17, (R)-3-amino-4,6-dimethyl-N-(7-(piperazin-1-yl)chroman-3-yl)thieno[2,3-b]pyridine-2-carboxamide], the IC50 was in the range of 0.05 to 0.2 µM. `Cc1cnc2c(N)c(C(=O)N[C@@H]3CCc4cc(N5CCNCC5)c(C)cc4C3)sc2n1` (single isomer, unassigned) [Example 2-35]: the IC50 is over 2 µM. The value for `Cc1nc2sc(C(=O)N[C@@H]3COc4cc(N5CCNCC5)ccc4C3)c(N)c2cc1F` (single isomer, unassigned) [Example 1-16] was over 2 µM; that for `Cc1nc2sc(C(=O)N[C@@H]3COc4cc(N5CCNCC5)cc(F)c4C3)c(N)c2s1` (single isomer, unassigned) [Example 1-38] was 0.2 to 2 µM. The value for `Cc1nc2sc(C(=O)N[C@H]3COc4cc(N5CC6CCCC(C5)N6)ccc4C3)c(N)c2s1` [Example 2-27] was 0.2 to 2 µM; that for `Cc1cc(C(F)(F)F)c2c(N)c(C(=O)N[C@H]3COc4cc(N5CC6CNCC(C5)O6)ccc4C3)sc2n1` [Example 2-23, N-((3R)-7-(9-oxa-3,7-diazabicyclo[3.3.1]nonan-3-yl)chroman-3-yl)-3-amino-6-methyl-4-(trifluoromethyl)thieno[2,3-b]pyridine-2-carboxamide] was 0.001 to 0.05 µM; that for `Cc1ccc2c(N)c(C(=O)N[C@@H]3COc4cc(N5CC6CCC(C5)N6)cc(F)c4C3)sc2n1` (single isomer, unassigned) [Example 1-30] was over 2 µM. `Cc1nc2sc(C(=O)N[C@H]3COc4cc(N5CC6CCC(C5)N6)cc(F)c4C3)c(N)c2s1` (single isomer, unassigned) [Example 1-39]: the IC50 is 0.2 to 2 µM. Turning to `Cc1ccc2c(N)c(C(=O)N[C@H]3COc4cc(N5CCC[C@](N)(C(F)(F)F)C5)ccc4C3)sc2n1` (single isomer, unassigned) [Example 3-4], the IC50 lay in the range of 0.2 to 2 µM. The value for `COc1nc2sc(C(=O)N[C@H]3COc4cc(N5CCNCC5)ccc4C3)c(N)c2cc1F` [Example 2-16, (R)-3-amino-5-fluoro-6-methoxy-N-(7-(piperazin-1-yl)chroman-3-yl)thieno[2,3-b]pyridine-2-carboxamide] was 0.2 to 2 µM.
